Measured values taken from patent publication US11952330B2, “Antibiotic ammonium compounds and methods for the treatment of bacterial infections” (priority 2019, dated 2024).

How the values were obtained:
[1] = test system: S. aureus; test: MIC by broth dilution, S. aureus; assay type: cell-based; conditions: Staphylococcus aureus; Mueller-Hinton broth, overnight 37° C.; Table 1; read-out: MIC (μg/mL) S. aureus
Method: (§1) The antibacterial efficacy of the ammonium compounds was assessed. Minimum inhibitory concentrations (MICs) were determined by broth dilution method. Dilutions of each compound, ranging from 1 μg/mL to 256 μg/mL (final concentrations) were prepared in Mueller-Hinton broth. Compound dilutions were added to wells of a 96-well plate, with the concentration of the compound increasing 2-fold by row. Each well contained 5×10^5 CFU/ml of target bacterium in a total volume of 100 μl. Plates were incubated overnight at 37° C. The following day, plates were evaluated for a visual change in growth to determine the MIC. The concentration value corresponding to the first row that no longer had visible bacterial growth, as evaluated by turbidity in the wells, was recorded as the MIC. MIC values were representative of at least biological duplicates, each made up of technical triplicates. The antibacterial efficacy of ammonium compounds in the presence of human plasma was assessed. Minimum inhibitory concentrations (MICs) were determined by broth dilution method. Dilutions of each compound, ranging from 1 μg/mL to 256 μg/mL (final concentrations) were prepared in Mueller-Hinton broth. For the plasma containing samples, compound dilutions were made in Mueller-Hinton broth and supplemented with 5% (final %) human plasma (esterases). Compound dilutions were added to wells of a 96-well plate, with the concentration of the compound increasing 2-fold by row. Each well contained 5×10^5 CFU/mL of target bacterium in a total volume of 100 μL. Plates were incubated overnight at 37° C. The following day, plates were evaluated for a visual change in growth to determine the MIC. The concentration value corresponding to the first row that no longer had visible bacterial growth, as evaluated by turbidity in the wells, was recorded as the MIC. MIC values were representative of at least biological duplicates, each made up of technical triplicates.

[2] = test system: A. baumannii; test: MIC by broth dilution, A. baumannii; assay type: cell-based; conditions: Acinetobacter baumannii; Mueller-Hinton broth, overnight 37° C.; Table 1; read-out: MIC (μg/mL) A. baumannii
Method: as §1

| Structure (SMILES) | MIC [1] [µg/mL] | MIC [2] [µg/mL] |
| --- | --- | --- |
| CCCCCCCCOc1ccccc1C(=O)Nc1ccc(C(=O)NC2CC[N+](C)(CCC)CC2)cc1.[Br-] (stereo not drawn) [Compound 72, 1-Methyl-4-(4-(2-(octyloxy)benzamido)benzamido)-1-propylpiperidin-1-ium bromide] | 3 to 30 | > 30 |
| CCCCCCCOc1ccccc1C(=O)Nc1ccc(C(=O)NC2CC[N+](C)(CCC)CC2)cc1.[Br-] (stereo not drawn) [Compound 73, 4-(4-(2-(Heptyloxy)benzamido)benzamido)-1-methyl-1-propylpiperidin-1-ium bromide] | 3 to 30 | > 30 |
| CCCCCCCCOc1ccccc1C(=O)Nc1ccc(C(=O)N(C)C2CC[N+](CC)(CCC)CC2)cc1.[Br-] (stereo not drawn) [Compound 74, 1-Ethyl-4-(N-methyl-4-(2-(octyloxy)benzamido)benzamido)-1-propylpiperidin-1-ium bromide] | 3 to 30 | > 30 |
| CCCCCCCCOc1ccccc1C(=O)Nc1ccc(C(=O)NC2CC[N+](CCC)(CCC)CC2)cc1.[Br-] [Compound 75, 4-(4-(2-(Octyloxy)benzamido)benzamido)-1,1-dipropylpiperidin-1-ium bromide] | 3 to 30 | > 30 |
| CCCCCCCOc1ccccc1C(=O)Nc1ccc(C(=O)NC2CC[N+](CCC)(CCC)CC2)cc1.[Br-] [Compound 76, 4-(4-(2-(Heptyloxy)benzamido)benzamido)-1,1-dipropylpiperidin-1-ium bromide] | 3 to 30 | > 30 |
| CCCCCCCOc1ccccc1C(=O)Nc1ccc(C(=O)NCC[N+](C)(CC)CC)cc1.[Br-] [Compound 77, N,N-Diethyl-2-(4-(2-(heptyloxy)benzamido)benzamido)-N-methylethan-1-aminium bromide] | 3 to 30 | > 30 |
| CCCCCCCCOc1ccccc1C(=O)Nc1ccc(S(=O)(=O)NCC[N+](C)(CC)CC)cc1.[Br-] [Compound 78, N,N-Diethyl-N-methyl-2-((4-(2-(octyloxy)benzamido)phenyl)sulfonamido)ethan-1-aminium bromide] | 3 to 30 | 3 to 30 |
| CCCCCCCOc1ccccc1C(=O)Nc1ccc(S(=O)(=O)NCC[N+](C)(CC)CC)cc1.[Br-] [Compound 79, N,N-Diethyl-2-((4-(2-(heptyloxy)benzamido)phenyl)sulfonamido)-N-methylethan-1-aminium bromide] | 3 to 30 | > 30 |
| CCCCCCCCOc1ccccc1C(=O)Nc1ccc(C(=O)NC2CC[N+](C)(CC)CC2)cc1.[Br-] (stereo not drawn) [Compound 80, 1-Ethyl-1-methyl-4-(4-(2-(octyloxy)benzamido)benzamido)piperidin-1-ium bromide] | 3 to 30 | > 30 |
| CCCCCCCOc1ccccc1C(=O)Nc1ccc(C(=O)NC2CC[N+](C)(CC)CC2)cc1.[Br-] (stereo not drawn) [Compound 81, 1-Ethyl-4-(4-(2-(heptyloxy)benzamido)benzamido)-1-methylpiperidin-1-ium bromide] | > 30 | > 30 |
| CCCCCCCCOc1ccccc1C(=O)Nc1ccc(S(=O)(=O)NCC[N+](CC)(CC)CCC)cc1.[Br-] [Compound 82, N,N-Diethyl-N-(2-((4-(2-(octyloxy)benzamido)phenyl)sulfonamido)ethyl)propan-1-aminium bromide] | 3 to 30 | 3 to 30 |
| CCCCCCCOc1ccccc1C(=O)Nc1ccc(S(=O)(=O)NCC[N+](CC)(CC)CCC)cc1.[Br-] [Compound 83, N,N-Diethyl-N-(2-((4-(2-(heptyloxy)benzamido)phenyl)sulfonamido)ethyl)propan-1-aminium bromide] | 3 to 30 | > 30 |
| CCCCCCCCOc1ccccc1C(=O)Nc1ccc(C(=O)NC2CC[N+](CC)(CCC)CC2)cc1.[Br-] (stereo not drawn) [Compound 84, 1-Ethyl-4-(4-(2-(octyloxy)benzamido)benzamido)-1-propylpiperidin-1-ium bromide] | 3 to 30 | > 30 |
| CCCCCCCOc1ccccc1C(=O)Nc1ccc(C(=O)NC2CC[N+](CC)(CCC)CC2)cc1.[Br-] (stereo not drawn) [Compound 85, 1-Ethyl-4-(4-(2-(heptyloxy)benzamido)benzamido)-1-propylpiperidin-1-ium bromide] | 3 to 30 | > 30 |
| CCCCCCCCOc1ccc(F)cc1C(=O)Nc1ccc(C(=O)OCC[N+](C)(CC)CC)cc1.[Br-] [Compound 86, N,N-Diethyl-2-((4-(5-fluoro-2-(octyloxy)benzamido)benzoyl)oxy)-N-methylethan-1-aminium bromide] | < 3 | 3 to 30 |
| CCCCCCCCOc1cc(F)ccc1C(=O)Nc1ccc(C(=O)OCC[N+](C)(CC)CC)cc1.[Br-] [Compound 87, N,N-Diethyl-2-((4-(4-fluoro-2-(octyloxy)benzamido)benzoyl)oxy)-N-methylethan-1-aminium bromide] | 3 to 30 | > 30 |
| CCCCCCCCOc1cccc(F)c1C(=O)Nc1ccc(C(=O)OCC[N+](C)(CC)CC)cc1.[Br-] [Compound 88, N,N-Diethyl-2-((4-(2-fluoro-6-(octyloxy)benzamido)benzoyl)oxy)-N-methylethan-1-aminium bromide] | 3 to 30 | > 30 |
| CCCCCCCCOc1c(F)cccc1C(=O)Nc1ccc(C(=O)OCC[N+](C)(CC)CC)cc1.[Br-] [Compound 89, N,N-Diethyl-2-((4-(3-fluoro-2-(octyloxy)benzamido)benzoyl)oxy)-N-methylethan-1-aminium bromide] | 3 to 30 | > 30 |
| CCCCCCCCOc1ccccc1C(=O)Nc1ccc(C(=O)OCC[N+](C)(CC)CC)c(F)c1.[Br-] [Compound 90, N,N-Diethyl-2-((2-fluoro-4-(2-(octyloxy)benzamido)benzoyl)oxy)-N-methylethan-1-aminium bromide] | 3 to 30 | 3 to 30 |
| CCCCCCCCOc1ccccc1C(=O)Nc1ccc(C(=O)OCC[N+](C)(CC)CC)cc1F.[Br-] [Compound 91, N,N-Diethyl-2-((3-fluoro-4-(2-(octyloxy)benzamido)benzoyl)oxy)-N-methylethan-1-aminium bromide] | 3 to 30 | > 30 |
| CCCCCCOc1ccccc1C(=O)Nc1ccc(S(=O)(=O)NCC[N+](CC)(CC)CCCCC)cc1.[Br-] [Compound 92, N,N-Diethyl-N-(2-((4-(2-(hexyloxy)benzamido)phenyl)sulfonamido)ethyl)pentan-1-aminium bromide] | 3 to 30 | > 30 |
| CCCCCCCOc1ccccc1C(=O)Nc1ccc(S(=O)(=O)NCC[N+](CC)(CC)CCCC)cc1.[Br-] [Compound 93, N,N-Diethyl-N-(2-((4-(2-(heptyloxy)benzamido)phenyl)sulfonamido)ethyl)butan-1-aminium bromide] | 3 to 30 | > 30 |
| CCCCCCOc1cc(F)ccc1C(=O)Nc1ccc(S(=O)(=O)NCC[N+](CC)(CC)CCCCC)cc1.[Br-] [Compound 94, N,N-Diethyl-N-(2-((4-(4-fluoro-2-(hexyloxy)benzamido)phenyl)sulfonamido)-ethyl)pentan-1-aminium bromide] | 3 to 30 | 3 to 30 |
| CCCC(CCC)Oc1ccccc1C(=O)Nc1ccc(C(=O)OCC[N+](C)(CC)CC)cc1.[Br-] [Compound 96, N,N-Diethyl-2-((4-(2-(heptan-4-yloxy)benzamido)benzoyl)oxy)-N-methylethan-1-aminium bromide] | 3 to 30 | > 30 |
